US20140303367A1, “Methods for Synthesizing Molybdopterin Precursor Z Derivatives” (Alexion Pharma International Sàrl, priority 2011, published 2014)

Tests used:
[1] = target: MPT synthase from E. coli (Escherichia coli, UniProt P30748+P30749); assay: In vitro synthesis of MPT from cPMP; format: biochemical; settings: FIGS. 2 and 3; for conversion of cPMP into MPT: all samples
From the text: In vitro synthesis of MPT was compared using samples of synthetic precursor Z (cPMP) and cPMP purified from E. coli. MPT synthesis also involved the use of in vitro assembled MPT synthase from E. coli. See U.S. Pat. No. 7,504,095 and “Biosynthesis and molecular biology of the molybdenum cofactor (Moco)” in Metal Ions in Biological Systems, Mendel, Ralf R. and Schwarz, Günter, Informa Plc, 2002, Vol. 39, pages 317-68.

[2] = system: human apo-sulfite oxidase; assay: In vitro synthesis of Moco from cPMP (conversion into MPT, molybdate insertion, reconstitution of apo-sulfite oxidase); format: biochemical; settings: FIG. 1
From the text: In vitro synthesis of Moco was compared using samples of synthetic precursor Z (cPMP) and cPMP purified from E. coli. Moco synthesis also involved the use of the purified components E. coli MPT synthase, gephyrin, molybdate, ATP, and apo-sulfite oxidase. See U.S. Pat. No. 7,504,095 and “Biosynthesis and molecular biology of the molybdenum cofactor (Moco)” in Metal Ions in Biological Systems, Mendel, Ralf R. and Schwarz, Günter, Informa Plc, 2002, Vol. 39, pages 317-68. The assay is based on the conversion of cPMP into MPT, the subsequent molybdate insertion using recombinant gephyrin and ATP, and finally the reconstitution of human apo-sulfite oxidase.

Sequence of MPT synthase from E. coli (P30749 whole entry): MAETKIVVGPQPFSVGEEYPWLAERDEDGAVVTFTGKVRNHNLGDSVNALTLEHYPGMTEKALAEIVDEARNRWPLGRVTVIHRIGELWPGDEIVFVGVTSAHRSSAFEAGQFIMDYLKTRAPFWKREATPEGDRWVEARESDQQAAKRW
Sequence of MPT synthase from E. coli (P30748 whole entry): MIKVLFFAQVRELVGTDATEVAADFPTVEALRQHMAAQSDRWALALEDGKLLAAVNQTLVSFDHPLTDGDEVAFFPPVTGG

SMILES: Nc1nc(=O)c2c([nH]1)N[C@@H]1O[C@@H]3COP(=O)(O)O[C@@H]3C(O)(O)[C@@H]1N2 [E. coli purified cPMP, reference compound]
- conversion of cPMP into MPT ([1]; in vitro): linear conversion

SMILES: Nc1nc2c(c(=O)[nH]1)N[C@@H]1[C@H](N2)O[C@@H]2COP(=O)(O)O[C@@H]2C1(O)O [synthetic cPMP, (4aR,5aR,11aR,12aS)-1,3,2-Dioxaphosphorino[4′,5′:5,6]pyrano[3,2-g]pteridin-10(4H)-one,8-amino-4a,5a,6,9,11,11a,12,12a-octahydro-2,12,12-trihydroxy-2-oxide]
- MPT synthesis ([1]; in vitro assembled MPT synthase from E. coli, three repetitions): confirmed
- conversion of cPMP into MPT ([1]; in vitro): linear conversion
- MPT conversion compared to E. coli purified cPMP ([1]; in vitro, three repetitions): no apparent differences
- Moco synthesis ([2]; E. coli MPT synthase, gephyrin, molybdate, ATP, apo-sulfite oxidase): confirmed
- Moco conversion in comparison to E. coli purified cPMP [2]: no differences
